The subject of one data set is Amyloid β-protein. The experiment in a line: Screening of the degree of β-structure recognition (fluorescence, in the presence of Congo red). Particulars: test compound 5 µM, amyloid β-protein 5 µM, Congo red 0.1 µM, phosphate buffer pH 7.4. Type of data set: binding.
Data set [1] can be described thus: Blood-brain barrier permeability after intravenous administration. Particulars: for Plasma: mice, content in plasma two minutes after intravenous administration.
Method: (B) Testing of blood-brain barrier permeability Measurements of blood-brain barrier permeability were made according to the following procedures. Compounds of the present invention were intravenously administered to mice to determine their in vivo blood-brain barrier permeability. • (1) Mice utilized Slc:ICR weighing 30-40 g (7 weeks old, n=3) (Nippon SLC). • (2) A test compound was dissolved in a mixture of 1N HCl, polyethylene glycol 400, and DMSO, or in DMSO or ethyl alcohol, and then diluted with purified water, and injected via tail vein. Two minutes after administration, the mice, under ether anesthesia, were subjected to taking blood from the abdominal aorta with a heparin-treated syringe and removing the brain. • (3) After taking blood, blood samples were centrifuged at 14,000 rpm at 4°C for 10 minutes, and their supernatants were kept at -80°C as plasma sample. The brain (including cerebellum) was kept at -80°C after its removal. • (4) The plasma sample, when used, was thawed, diluted with purified water, and then applied to a conditioned C18 solid-phase extraction cartridge (bond elute C18, 200 mg, Varian), followed by elution with methyl alcohol. Alternatively, after thawing the plasma sample, a diethyl ether/cyclohexane mixture was added, and the mixture was shaken, and then centrifuged to separate an oil layer. • (5) The brain material, when used, was subjected to measuring its wet weight with the brain remaining frozen, and saline was added to the brain for homogenization. The homogenate was centrifuged for 10 minutes, and the supernatant was applied to a conditioned C18 solid-phase extraction cartridge and eluted with methyl alcohol. Alternatively, after measuring the wet weight of the frozen brain, a diethyl ether/cyclohexane mixture was added to the brain, and the mixture was homogenized, shaken, and then centrifuged to separate an oil layer. • (6) The absorbance and fluorescence were detected employing high performance liquid chromatography. • (7) For each of the plasma and brain, the content of the test compound in the plasma or brain (%ID (injected dose)/ml or g) was determined, relative to the administered dose.
The next data set deals with T1, senile plaques (Homo sapiens, UniProt P05067).
T1 construct: The former has, as the main component, amyloid β-protein (Aβ protein) taking β-sheet structures; from tissue; host or cells: paraffin-embedded temporal lobe or hippocampus sections of an Alzheimer's disease patient's brain (Fukushimura Hospital)
T1 sequence (P05067 672-713 limits assumed): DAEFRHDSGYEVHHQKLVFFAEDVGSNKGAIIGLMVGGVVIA
The experiment in a line: Staining of senile plaques and diffuse plaques in brain sections, compared with thioflavin S, BSB or anti-Aβ antibody 6F/3D immunostaining. Particulars: 100 µM compound in 50% ethanol; for staining properties compared with immunostaining of anti-Aβ antibody 6F/3D: adjacent sections immunostained with 6F/3D; for staining properties in sections of the brain of a patient with Alzheimer's disease: compared with thioflavin S (and BSB) on adjacent sections. The data set is classed as binding, patient with Alzheimer's disease. From the text:
The following explanation is made about testing of staining properties of the compounds of the present invention on brain sections of an Alzheimer's disease patient. • (1) Temporal lobe or hippocampus specimens of the brain of a patient who had been definitely diagnosed pathologically as Alzheimer's disease and of a normal aged individual were used. These specimens were provided from Fukushimura Hospital, our joint research facility, with the consent to their use for research purpose received from the bereaved family of the patient (BF Research Laboratories Institutional Ethics Board Permission No. RS-99-02). • (2) The brain tissues embedded in paraffin were sliced 6 or 8 µm thick, extended on slides, and dried. The paraffin-embedded brain sections were deparaffined by washing sequentially with xylene (10 minutes, twice), 100% ethanol (15 minutes, twice), 95% ethanol (15 minutes, twice), and a stream of water (10 minutes). • (3) Pre-treatment for staining with compounds of the present invention involved treating the sections for eliminating self-fluorescence due to lipofuscin. First, the deparaffined sections were immersed into a 10% formalin solution for 60 minutes and washed with PBS for 5 minutes, followed by immersion into a 0.25% solution of KMnO4 for 90 minutes. After washing twice with PBS for 2 minutes each, the sections were immersed into a solution of 0.1% K2S2O5/oxalic acid for about 30 seconds each, and then washed three times with PBS for 2 minutes each. • (4) About 150 µl of a 100 µM solution of a compound of the present invention dissolved in 50% ethanol was added dropwise onto the sections and allowed the reaction to be carried out for 10 minutes. The sections were dipped into tap water five times, and then 50% ethanol three to five times, followed by immediate classification. After that, the sections were immersed into PBS for 60 minutes, enclosed with Fluor Save Reagent (Calbiochem), and examined under a fluorescent microscope (Nikon, Eclips E800). Pictures were taken using a digital camera (Plaroid PDMCII).
Immunostaining was carried out as follows. • (a) Procedures for immunostaining amyloid β-protein: • (1) After the sections were deparaffined, the sections were washed twice in distilled water for 2 minutes each, and tissues were marked with an Immunopen. About 150 µl of formic acid was added dropwise and allowed to stand at room temperature for 5 minutes. The sections were washed with tap water for 5 minutes and immersed into cold PBS-Tween 20 for 2 minutes, and then about 150 µl of a 0.05% trypsin solution was added dropwise and allowed the reaction to be carried out at 37°C for 15 minutes. • (2) In an ice bath, the sections were washed twice with cold PBS-Tween 20 for 5 minutes each, and two drops of blocking serum were added and allowed the reaction to be carried out at 37°C for 15 minutes. Excess water was removed, and about 150 µl of 6F/3D, an antibody specific to amyloid β-protein (DAKO; diluted 1:50) was added dropwise and allowed the reaction to be carried out at 37°C for 1 hour. • (3) Further, after washing five times with cold PBS-Tween 20 for 2 minutes each, two drops of a solution of goat antimouse IgG (H+L) conjugated to biotin were added and allowed the reaction to be carried out at 37°C for 1 hour. After that, the sections were washed three times with cold PBS-Tween 20 for 2 minutes each, and two drops of ABS solution (a streptavidin-biotin-peroxidase complex solution) were added and allowed to stand for 30 minutes. The sections were again washed three times with cold PBS-Tween 20 for 2 minutes each, and about 150 µl of DAB solution (prepared by dissolving 10 mg of DAB in 20 ml of 0.05 mol/l Tris-HCl buffer and adding 100 µl of 3% hydrogen peroxide immediately before use) were added and allowed the color to be developed sufficiently. Then, the sections were washed with distilled water for 1 minute to stop the reaction, enclosed, and examined under a microscope.

Data set [2] can be described thus: Acute toxicity testing, intravenous administration. Particulars: mouse, in vivo, iv; male Crj:CD1 mice, via tail vein, observed up to 7 days; read-out: Maximum Tolerated Dose (mg/kg, intravenous administration). Type of data set: in vivo. The method, then:
The following explanation is made of testing methods for properties of the compounds of the present invention. (A) Testing of acute toxicity Acute toxicity of the inventive compounds was determined employing mice by intravenous administration. Male Crj:CD1 mice were used and divided into groups of 4 mice, with an average weight of each group of 31-32 g. […] Up to 7 days after administration, observations were made.

Bounds are passed on as bounds.

As for “2-[2-(2-dimethylamino-1,3,4-thiazol-5-yl)ethenyl]benzoxazole [BF-237]”, in the data set on Amyloid β-protein, the “Degree of β-structure recognition (%)” value is recorded as 76.5%. With `CNc1ccc(/C=C/C=C/c2nc3ccccc3o2)cc1` [BF-185, 2-[[4-(4-methylamino)phenyl]-1,3-butadienyl)benzoxazole], in data set [1], the Plasma is on record as 1.0 %ID/g or ml. On senile plaques, the “staining properties compared with immunostaining of anti-Aβ antibody 6F/3D” value is “stains senile plaques (Fig. 3, wedge-shaped arrowheads) and diffuse plaques”; the “staining properties in sections of the brain of a patient with Alzheimer's disease” value (“staining properties in sections” for short) was “mainly stains senile plaques”. Moreover, the “Degree of β-structure recognition (%)” value in the data set on Amyloid β-protein is on record as 82.7%.

Turning to `CNc1ccc(/C=C/C=C/c2nc3ccccc3s2)cc1` [BF-187, 2-[[4-(4-methylamino)phenyl]-1,3-butadienyl)benzothiazole], the Plasma in data set [1] is recorded as 1.3 %ID/g or ml. Further, the “staining properties in sections” value at senile plaques is listed as “stains senile plaques”. Besides, in the data set with Amyloid β-protein, the “Degree of β-structure recognition (%)” value is listed as 63.3%. The matching figures for `CNc1ccc(/C=C/C=C/c2nc3ccccc3[nH]2)cc1` [BF-188, 2-[[4-(4-methylamino)phenyl]-1,3-butadienyl]benzoimidazole]: 1.7 %ID/g or ml, “stains senile plaques” and 68.9%.

For `CNc1ccc(/C=C/C=C/C=C/c2ccc3ccccc3n2)cc1` [BF-189, 1-(4-methylaminophenyl)-6-(2-quinolyl)-1,3,5-hexatrien], the “staining properties in sections” value at senile plaques is “stains senile plaques”. Besides, the “Degree of β-structure recognition (%)” value with Amyloid β-protein came out at 79.8%. The MTD at 168 h in data set [2] is not below 10 mg/kg. `CN(C)c1ncc(/C=C/c2nc3ccccc3s2)s1` [BF-196, 2-[2-(2-dimethylaminothiazol-5-yl)ethenyl]benzothiazole]: in data set [1], the Plasma was 1.8 %ID/g or ml. Besides, the tissue uptake at 2 min in data set [1] (mouse, brain, iv) amounted to 19 %ID/g. Also, at senile plaques, the “staining properties compared with immunostaining of anti-Aβ antibody 6F/3D” value is “stains senile plaques” and the “staining properties in sections” value is reported as “mainly stains senile plaques”. In addition, in the data set on Amyloid β-protein, the “Degree of β-structure recognition (%)” value is 53.5%. `Nc1ccc(/C=C/C=C/c2nc3ccc(O)cc3o2)c(O)c1` [BF-201]: at senile plaques, the “staining properties compared with immunostaining of anti-Aβ antibody 6F/3D” value is on record as “stains senile plaques” and the “staining properties in sections” value is recorded as “stains senile plaques”. The “Degree of β-structure recognition (%)” value in the data set with Amyloid β-protein was 82.0%.

As to `CN(C)c1ncc(-c2ccc3ccccc3n2)o1` [BF-221, 2-(2-dimethylaminooxazol-5-yl)quinoline], the “Degree of β-structure recognition (%)” value in the data set with Amyloid β-protein came out at 73.8%. In the case of `CN(C)c1ncc(-c2nc3ccccc3o2)s1` [BF-225, 2-(2-dimethylaminothiazol-5-yl)benzoxazole], the “Degree of β-structure recognition (%)” value in the data set on Amyloid β-protein is recorded as 87.5%.

In the case of `Cc1ccc(S(=O)(=O)OCCOc2ccc3nc(/C=C/c4cnc(N(C)C)s4)oc3c2)cc1` [BF-226, 2-[2-(2-dimethylaminothiazol-5-yl)ethenyl]-6-[2-(4-tosyloxy)ethoxy]benzoxazole], the “Degree of β-structure recognition (%)” value in the data set with Amyloid β-protein is listed as 43.3%. As to `Cc1nc(/C=C/C=C/c2ccc(N(C)C)cc2)oc1C` [BF-228, 2-[4-(4-dimethylaminophenyl)-1,3-butadienyl]-4,5-dimethyloxazole], in the data set with Amyloid β-protein, the “Degree of β-structure recognition (%)” value is on record as 83.8%. Also, the MTD at 168 h in data set [2] was not below 10 mg/kg. As to `Cc1nc(/C=C/C=C/c2cnc(N(C)C)o2)oc1C` [BF-229, 2-[4-(2-dimethylaminooxazol-5-yl)-1,3-butadienyl]-4,5-dimethyloxazole], the “Degree of β-structure recognition (%)” value in the data set with Amyloid β-protein is given as 70.7%.

For `CN(C)c1ncc(/C=C/c2nc3ccccc3o2)o1` [BF-230, 2-[2-(2-dimethylaminooxazol-5-yl)ethenyl]benzoxazole], the “Degree of β-structure recognition (%)” value in the data set on Amyloid β-protein is 74.0%. Moreover, the MTD at 168 h in data set [2] was not below 10 mg/kg. In the case of `CNc1ncc(/C=C/c2ccc(O)cc2)s1` [BF-235, 5-(4-hydroxystyryl)-2-methylaminothiazole], the “Degree of β-structure recognition (%)” value in the data set on Amyloid β-protein is given as 65.5%. On to `CN(C)c1nnc(/C=C/c2nc3ccccc3o2)o1` [BF-238, 2-[2-(2-dimethylamino-1,3,4-oxazol-5-yl)ethenyl]benzoxazole], for which the “Degree of β-structure recognition (%)” value in the data set on Amyloid β-protein is 52.3%. Regarding `Nc1ncc(-c2ccc3ccccc3n2)s1` [BF-240, 2-(2-aminothiazol-5-yl)quinoline], in the data set on Amyloid β-protein, the “Degree of β-structure recognition (%)” value stood at 49.9%.

For `CCC[CH2][Sn]([CH2]CCC)([CH2]CCC)[c]1ccc2nc(C=Cc3cnc(N(C)C)s3)oc2c1` [BF-246, 6-tri(n-butyl)stannyl-2-[2-(2-dimethylaminothiazol-5-yl)ethenyl]benzoxazole], in the data set on Amyloid β-protein, the “Degree of β-structure recognition (%)” value is on record as 24.6%. Turning to `CN(C)c1ncc(/C=C/c2nc3ccc(I)cc3o2)s1` [BF-247, 6-(iodo)-2-[2-(2-dimethylaminothiazol-5-yl)ethenyl]benzoxazole], in the data set with Amyloid β-protein, the “Degree of β-structure recognition (%)” value amounted to 43.7%. On the same count and under the same terms, with `CN(C)c1ncc(/C=C/c2nc3ccccc3[nH]2)s1` [BF-248, 2-[2-(2-dimethylaminothiazol-5-yl)ethenyl]benzimidazole] the figure was 40.1%; with `CN(C)c1cnc(/C=C/c2nc3ccccc3s2)o1` [BF-250, 2-[2-(5-dimethylaminooxazol-2-yl)ethenyl]benzothiazole], 43.1%; with `Cc1ccc(S(=O)(=O)OCCOc2ccc3nc(/C=C/c4cnc(N(C)C)s4)sc3c2)cc1` [BF-251, 2-[2-(2-dimethylaminothiazol-5-yl)ethenyl]-6-[2-(4-tosyloxy)ethoxy]benzothiazole], 37.5%. The same measure, in the same setting: with `CN(C)c1ncc(/C=C/c2nc3ccc(OCCF)cc3s2)s1` [BF-252, 2-[2-(2-dimethylaminothiazol-5-yl)ethenyl]-6-[2-(fluoro)ethoxy]benzothiazole] the figure was 47.0%; with `Nc1cnc(-c2ccc3ccccc3n2)o1` [BF-255, 2-(5-アミノオキサゾール-2-イル)キノリン], 65.8%. Take `O=C(O)c1cc(/C=C/c2ccc(/C=C/c3ccc(O)c(C(=O)O)c3)c(Br)c2)ccc1O` [BSB, (trans, trans)-1-bromo-2,5-bis-(3-hydroxycarbonyl-4-hydroxy)styrylbenzen, reference compound]: the “staining properties in sections” value at senile plaques is “stains both senile plaques and neurofibrillary tangles”. As for `Cc1ccc2c(c1)sc(-c1ccc(N(C)C)cc1)[n+]2C` [Thioflavin T, reference compound], in the data set with Amyloid β-protein, the “Degree of β-structure recognition (%)” value is reported as 61.8%. Regarding thioflavin S [reference compound], the “staining properties in sections” value on senile plaques was “stains both senile plaques and neurofibrillary tangles”.

In general, tissue uptake refers to the share of the injected amount in each gram of the tissue.

The values are drawn from EP1655287A1, “PROBE FOR DISEASES WITH AMYLOID ACCUMULATION, AMYLOID-STAINING AGENT, REMEDY AND PREVENTIVE FOR DISEASES WITH AMYLOID ACCUMULATION AND DIAGNOSTIC PROBE AND STAINING AGENT FOR NEUROFIBRILLARY CHANGE” (priority 2003, dated 2005).
